The subject of data set [1] is Common lambsquarters. Put plainly: Upland Soil Application Test. In kind it is in vivo. Particulars: 30 g ai/a; soil application before emergence, wettable powder; observed 30 days later. Here is the method: (§1) Resin-made 1/2500-are pots were filled with the soil of an upland field. After they were fertilized, soybean, corn and cotton were seeded and 2-3 cm soil covering was applied. Seeds of redroot pigweed, morningglory (Ipomoea purpurea), common lambsquarters, barnyardgrass, green foxtail, large crabgrass, foxtail meadow and johnsongrass had been uniformly mixed with the soil. They were allowed to germinate in a green house. One day later (before emergence of weeds), a wettable powder prepared from a predetermined amount of each test compound in a similar manner to the method described in Formulation Example 1 was diluted with water and then sprayed evenly at an application rate equal to 10 l per are onto the surface of the soil by means of a pressure-operated ULV (ultra low volume) sprayer. Influence to the crops and weeds were observed 30 days later. The results are shown in Table 3, in which the degree of damages of each test plant and the degree of injury to each crop were determined by comparing the air-dried weights of the test plant and crop with those of the corresponding plant and crop in untreated pots and are shown in accordance with the following standard: […]

In data set [2] the test system is Barnyardgrass (Echinochloa crus-galli). Kind of data set: Upland Soil Application Test. Particulars: 30 g ai/a; soil application before emergence, wettable powder; observed 30 days later. In kind it is in vivo. The procedure:
as §1

The subject of data set [3] is Foxtail (Setaria viridis). Kind of data set: Upland Soil Application Test. In kind it is in vivo. To be noted: 30 g ai/a; soil application before emergence, wettable powder; observed 30 days later. The procedure: as §1
The test system of data set [4] is Johnsongrass. Put plainly: Upland Soil Application Test. In kind it is in vivo. To be noted: 30 g ai/a; soil application before emergence, wettable powder; observed 30 days later. Here is the method:
as §1

The test system of data set [5] is Foxtail meadow. Put plainly: Upland Soil Application Test. In kind it is in vivo. To be noted: 30 g ai/a; soil application before emergence, wettable powder; observed 30 days later. Here is the method: as §1
In data set [6] the test system is Redroot Pigweed. Kind of data set: Upland Soil Application Test. In kind it is in vivo. Particulars: 30 g ai/a; soil application before emergence, wettable powder; observed 30 days later. The procedure: as §1
Data set [7] has as its system Crabgrass (Digitaria adsendens). Kind of data set: Upland Soil Application Test. The class given is in vivo. To be noted: 30 g ai/a; soil application before emergence, wettable powder; observed 30 days later. Here is the method: as §1
Data set [8] has as its system Common lambsquarters. Put plainly: Upland Foliar Application Test. In kind it is in vivo. To be noted: 30 g ai/a; foliar application at 2-3 leaf stage, emulsion; observed on the 30th day. The text has this:
(§2) Resin-made 1/10000-are pots were filled with the soil of an upland field. Redroot pigweed, morningglory (Ipomoea pupurea), common lambsquarters, foxtail meadow, johnsongrass, barnyardgrass, green foxtail, large crabgrass, soybean, corn and cotton were separately seeded and were allowed to germinate in a green house. When each plant grew to the stage of 2-3 leaves, an emulsion formulated from a predetermined amount of each test compound in a similar manner to the method described in Formulation Example 11 was diluted with water and then sprayed at a predetermined application rate by means of a pressure-operated ULV (ultra low volume) sprayer. The application rate was controlled at 5 l per are. Influence to the crops and weeds were observed on the 30th day after the spray of the herbicides. The results are shown in Table 4 in which the degree of damages of each test plant and the degree of injury to each crop are shown in a similar manner to Test 2.

Data set [9] concerns Barnyardgrass (Echinochloa crus-galli). Kind of data set: Upland Foliar Application Test. In kind it is in vivo. To be noted: 30 g ai/a; foliar application at 2-3 leaf stage, emulsion; observed on the 30th day.
Excerpt: as §2

The subject of data set [10] is Foxtail (Setaria viridis). Put plainly: Upland Foliar Application Test. The class given is in vivo. To be noted: 30 g ai/a; foliar application at 2-3 leaf stage, emulsion; observed on the 30th day.
Excerpt: as §2

For data set [11], the system named is Johnsongrass. Put plainly: Upland Foliar Application Test. In kind it is in vivo. To be noted: 30 g ai/a; foliar application at 2-3 leaf stage, emulsion; observed on the 30th day.
Excerpt: as §2

Data set [12] has as its system Foxtail meadow. Kind of data set: Upland Foliar Application Test. The class given is in vivo. Particulars: 30 g ai/a; foliar application at 2-3 leaf stage, emulsion; observed on the 30th day.
Excerpt: as §2

Data set [13] has as its system Redroot Pigweed. Kind of data set: Upland Foliar Application Test. Particulars: 30 g ai/a; foliar application at 2-3 leaf stage, emulsion; observed on the 30th day. In kind it is in vivo.
Excerpt: as §2

Data set [14] has as its system Crabgrass (Digitaria adsendens). Kind of data set: Upland Foliar Application Test. The class given is in vivo. To be noted: 30 g ai/a; foliar application at 2-3 leaf stage, emulsion; observed on the 30th day.
Excerpt: as §2

In data set [15] the test system is Bulrush (Scirpus juncoides). Kind of data set: Submerged Soil Treatment Test (Pre-Emergence Treatment). The class given is in vivo. Particulars: 30 g ai/a, granule, observed 30 days later. Here is the method:
(§3) 1/5000-are Wagner pots were filled with soil. Seeds or tubers of barnyardgrass, bulrush and Sagittaria pygmaea were seeded or planted under submerged condition. Two pairs of rice seedlings (2-3 leaf stage), which had been reared in advance, were transplanted to each pot and were allowed to germinate in a green house. Each pair consisted of two rice seedlings. On day later (before emergence of weeds), each pot was treated with a granule which had been prepared by processing a predetermined amount of the test composition in accordance with a similar method to the method described in Formulation Example 9. The state of emergence of weeds and the state of injury of rice were observed 30 days later. In the table, the degrees of damages of the test plants and the degrees of injury of rice are shown in a similar manner to Example 2.

Data set [16] concerns Barnyardgrass (Echinochloa crus-galli). The data set is described as above. The class given is in vivo. To be noted: 30 g ai/a, granule, observed 30 days later. The procedure:
as §3

Data set [17] deals with Arrowhead sp. (Sagittaria pygmaea). Described as above. In kind it is in vivo. Particulars: 30 g ai/a, granule, observed 30 days later. Here is the method:
as §3

The test system of another data set is Corn (Zea maize). Kind of data set: Upland Foliar Application Test, crop injury. To be noted: 30 g ai/a; foliar application at 2-3 leaf stage, emulsion; observed on the 30th day. In kind it is in vivo.
Excerpt: as §2

For data set [18], the system named is Cotton (Gossypium indicum). Kind of data set: Upland Foliar Application Test, crop injury. To be noted: 30 g ai/a; foliar application at 2-3 leaf stage, emulsion; observed on the 30th day. In kind it is in vivo.
Excerpt: as §2

The subject of the next data set is Soybean (Glycine max). Put plainly: Upland Foliar Application Test, crop injury. The class given is in vivo. Particulars: 30 g ai/a; foliar application at 2-3 leaf stage, emulsion; observed on the 30th day.
Excerpt: as §2

Data set [19] relates to ALS (acetolactate synthase). Kind of data set: ALS (Acetolactate Synthase) Inhibition Test, barnyardgrass enzyme. Particulars: enzymoreaction inhibition rate at 10 ppm (5 μg/0.5 ml). The class given is biochemical. The procedure: To determine the selectivity in enzyme level between crops and weeds, an ALS inhibition test was conducted using pea as a representative of broadleaf crops and barnyardgrass as a representative of gramineous weeds.
After seeds of pea and barnyardgrass were allowed to germinate at 25° C. for 8-14 days in a dark place, partially-purified suspensions (Suspensions A) of acetolactate syntase were separately obtained from seedlings in accordance with the method described in the literature, Plant Physiology, 75, 827-831. In a test tube, […], followed by the addition of 0.15 ml of a 20 mM K2 HPO4 solution and 0.25 ml of a reaction substrate medium which consisted of 40 mM of K2 HPO4, 40 mM of sodium pyruvate, 1 mM of TPP, 1 mM of MgCl2 and 20 μM of FAD so that 0.4 ml of a reaction solution (Solution B) was prepared. Added to 0.4 ml of Solution B was 0.1 ml of Suspension A. After the resultant mixture was shaken for 1 hour in a thermostat water bath controlled at 30° C., 50 μl of 6N sulfuric acid were added to terminate the reaction.
Next, the reaction-terminated liquid mixture was transferred into a thermostat water bath controlled at 60° C. and was heated for 15 minutes. Thereafter, 0.5 ml of a 0.5% creatine solution and 0.5 ml of a 5% alkaline α-naphthol solution were added, and the resultant mixture was maintained at 60° C. for 15 minutes. As a result, the test solution developed a pink-red color. After the above operation, the absorbance of the test solution at 525 nm was measured by a spectrophotometer (Absorbance 1 of Test Compound).
On the other hand, the absorbance (Absorbance 2 of Blank) of a solution obtained by subjecting a portion of Solution B, said portion being free of the test compound, to the above operation and the absorbance (Absorbance 3 of sulfuric acid terminated) of another solution obtained by subjecting another portion of Solution B, said portion containing 50 μl of 6N sulfuric acid as a test compound, were measured at the same time. […] [formula]

Take `CCOC(=O)c1ncccc1Oc1nc(OC)cc(OC)n1` [A, reference compound]: the “Herbicidal effects Common lambquarters” value in the data set on Common lambsquarters [1] and in the data set on Common lambsquarters [8] was 4 (6-10 (Severe damages)) each time. Moreover, the “Herbicidal effects Barnyardgrass (Echinochloa crus-galli)” value (“Herbicidal effects Barnyardgrass” for short) in data set [2] is given as 3 (11-40 (Medium damages)); in data set [9], 5 (0-5 (Death)); in [16], 5 (0-5 (Death)). The “Herbicidal effects Foxtail (Setaria viridis)” value in data set [3] and in [10] was 5 (0-5 (Death)) throughout. Moreover, the “Herbicidal effects Johnsongrass” value in the data set with Johnsongrass [4] and in the data set on Johnsongrass [11] was 5 (0-5 (Death)) each time. Further, the “Herbicidal effects Foxtail meadow” value in the data set on Foxtail meadow [5] and with Foxtail meadow [12] was 5 (0-5 (Death)) each time. In addition, the “Herbicidal effects Redroot Pigweed” value with Redroot Pigweed [6] and in the data set on Redroot Pigweed [13] was 4 (6-10 (Severe damages)) throughout. The “Herbicidal effects Crabgrass (Digitaria adsendens)” value (shortened to “Herbicidal effects Crabgrass”) in data set [7] and in [14] was 4 (6-10 (Severe damages)) each time. Moreover, the “Herbicidal effects Bulrush (Scirpus juncoides)” value (from here on “Herbicidal effects Bulrush”) in data set [15] is 5 (0-5 (Death)). For the same molecule, in data set [17], the “Herbicidal effects Arrowhead sp. (Sagittaria pygmaea)” value is given as 4 (6-10 (Severe damages)). Moreover, the “Crop injury Corn (Zea maize)” value with Corn (Zea maize) is 5 (0-5 (Death)). Besides, the “Crop injury Cotton (Gossypium indicum)” value in data set [18] is recorded as 5 (0-5 (Death)). Also, the “Crop injury Soybean (Glycine max)” value in the data set on Soybean (Glycine max) is on record as 5 (0-5 (Death)). Moreover, the “Inhibition rate (%) Barnyardgrass” value in [19] amounted to 5%.
For `COc1cc(OC)nc(Oc2ccccc2C=O)n1` [B, reference compound], the “Herbicidal effects Common lambquarters” value in the data set on Common lambsquarters [1] and in the data set on Common lambsquarters [8] was 3 (11-40 (Medium damages)) each time. In addition, the “Herbicidal effects Barnyardgrass” value in data set [2] is on record as 3 (11-40 (Medium damages)); in [9] it was 4 (6-10 (Severe damages)); in [16] it was 3 (11-40 (Medium damages)). The “Herbicidal effects Foxtail (Setaria viridis)” value in data set [3] and in data set [10] was 4 (6-10 (Severe damages)) throughout. The “Herbicidal effects Johnsongrass” value in the data set on Johnsongrass [4] and in the data set on Johnsongrass [11] was 4 (6-10 (Severe damages)) in each case. Besides, the “Herbicidal effects Foxtail meadow” value in the data set on Foxtail meadow [5] and with Foxtail meadow [12] was 4 (6-10 (Severe damages)) in each case. In addition, the “Herbicidal effects Redroot Pigweed” value in the data set on Redroot Pigweed [6] and with Redroot Pigweed [13] was 3 (11-40 (Medium damages)) throughout. Moreover, the “Herbicidal effects Crabgrass” value in data set [7] and in data set [14] was 4 (6-10 (Severe damages)) in each case. Further, the “Herbicidal effects Bulrush” value in data set [15] is reported as 3 (11-40 (Medium damages)). Further, the “Herbicidal effects Arrowhead sp. (Sagittaria pygmaea)” value in [17] is 5 (0-5 (Death)). The “Crop injury Corn (Zea maize)” value in the data set on Corn (Zea maize) is 5 (0-5 (Death)). Besides, in [18], the “Crop injury Cotton (Gossypium indicum)” value is on record as 5 (0-5 (Death)). The “Crop injury Soybean (Glycine max)” value in the data set with Soybean (Glycine max) is reported as 5 (0-5 (Death)). Besides, in data set [19], the “Inhibition rate (%) Barnyardgrass” value worked out at 98%.
`COc1cc(OC)nc(Oc2cccnc2C=O)n1` [Compound No. 1, 4,6-dimethoxy-2-(2-formyl-3-pyridyloxy)pyrimidine]: the figures for the “Herbicidal effects Common lambquarters” value in the data set with Common lambsquarters [1] and in the data set on Common lambsquarters [8] were 2 (41-70 (Small damages)) and 5 (0-5 (Death)), respectively. Further, the “Herbicidal effects Barnyardgrass” value was 3 (11-40 (Medium damages)) in data set [2], 5 (0-5 (Death)) in data set [9] and 4 (6-10 (Severe damages)) in data set [16]. Also, the “Herbicidal effects Foxtail (Setaria viridis)” value is on record as 3 (11-40 (Medium damages)) in data set [3] and 5 (0-5 (Death)) in data set [10]. Moreover, the results for the “Herbicidal effects Johnsongrass” value in the data set on Johnsongrass [4] and in the data set with Johnsongrass [11] were 4 (6-10 (Severe damages)) and 5 (0-5 (Death)), respectively. Also, the results for the “Herbicidal effects Foxtail meadow” value with Foxtail meadow [5] and in the data set on Foxtail meadow [12] were 3 (11-40 (Medium damages)) and 5 (0-5 (Death)), respectively. In addition, the “Herbicidal effects Redroot Pigweed” value in the data set with Redroot Pigweed [6] was 3 (11-40 (Medium damages)); with Redroot Pigweed [13] it was 5 (0-5 (Death)). The “Herbicidal effects Crabgrass” value in data set [7] is 2 (41-70 (Small damages)); in data set [14], 4 (6-10 (Severe damages)). Further, in [15], the “Herbicidal effects Bulrush” value is 4 (6-10 (Severe damages)). Moreover, the “Herbicidal effects Arrowhead sp. (Sagittaria pygmaea)” value in data set [17] was 4 (6-10 (Severe damages)). Besides, in the data set with Corn (Zea maize), the “Crop injury Corn (Zea maize)” value is 0 (91-100 (No damages)). For the same molecule, the “Crop injury Cotton (Gossypium indicum)” value in data set [18] is given as 0 (91-100 (No damages)). Moreover, the “Crop injury Soybean (Glycine max)” value in the data set on Soybean (Glycine max) is reported as 1 (71-90 (Slight damages)). Besides, the “Inhibition rate (%) Barnyardgrass” value in [19] amounted to 100%.
